Test results reported in patent US20240299400A1, “Transcription Factor GLI1 Inhibitors and Uses Thereof” (University of Connecticut, priority 2023, published 2024).

What was measured:
GLI1 mRNA expression [1] = experiment: RT-qPCR GLI1 mRNA expression in OHCs-stimulated C3H10T1/2 MEFs; type: cell-based, mouse; details: for % Gli1 Expression: C3H10T1/2 MEFs, 10 μM, relative to Hh-agonist OHCs (set as 100%)
Description: (§1) ASZ001 and Sufu-KO cells were seeded in 96-well plates (10,000/well, 100 μL) and incubated overnight under growth conditions. On the second day, ‘growth’ media was removed and replaced by ‘assay’ media (100 μL). On the third day, cells were treated with a serial dilution of drugs or DMSO for 48 h. mRNA expression was determined through Taqman Fast Cells-to-CT Kit (#4399003) per the manufacturer's instructions. In brief, cells were washed with chilled PBS, then mixed with lysis solution containing DNase I and incubated at RT for 5 min. Stop solution was then added to quench the lysis reagents. cDNA was then synthesized through a BioRad MyCycler following addition of reverse transcriptase. Finally, the cDNA was amplified through an ABI 7500 system following addition of Taqman Fast Universal PCR Master Mix and Taqman Gene Expression Primer. Relative gene expression levels were computed by the ΔΔCt method. Values represent mRNA expression relative to DMSO control (set at 1.0). Data were analyzed using GraphPad Prism, and IC50 values are the mean±SEM for at least two separate experiments performed in triplicate. Primers used are as follows: mouse ActB (Mm00607939_s1); mouse GLI1 (Mm00494645_ml); mouse Gli2 (Mm01293117_ml); mouse Ptch1 (Mm00436026_ml); mouse Hhip (Mm00469580_ml).
C3H10T1/2 MEFs were seeded in 24-well plates (50,000/well, 500 μL). Following 24 h incubation, the ‘growth’ media was removed and replaced with ‘assay’ media (500 μL). On the third day, cells were treated with either DMSO, OHCs, or OHCs+drugs. Following a 24 h incubation, gene expression analysis was carried out following identical protocols as described above.

GLI1 mRNA expression [2] = experiment: RT-qPCR GLI1 mRNA expression in Sufu-KO MEFs; type: cell-based, mouse
Description: as §1

GLI1 mRNA expression [3] = experiment: RT-qPCR GLI1 mRNA expression in ASZ001 BCC cells; type: cell-based, mouse; details: for reduction of GLI1 expression in ASZ001 (in words): concentrations up to 10 μM
Description: as §1

ASZ001 cells = experiment: MTS anti-proliferative assay in ASZ001 cells; type: cell-based, murine; details: Mus musculus, ASZ001, Ave ± SEM
Description: Cell viability was assessed by MTS proliferation assay kit (Promega) per manufacturer's protocol. Briefly, 2×10^4 cells were plated in a 96-well plate in 100 μL growth medium to make the cell population at ˜80% confluence. After 24 h, 1 μL drug solution was added to each well. DMSO was used as vehicle compound. After 48 h incubation (37° C., 5% CO2), 20 μL of freshly prepared 3-(4,5-dimethylthiazol-2-yl)-5-(3-carboxymethoxyphenyl)-2-(4-sulfophenyl)-2H-tetrazolium (MTS)/phenazine methosulfate (PMS) solution was added to each well, and the plate was returned to the incubator for 1 h. Absorbance at 490 nm was recorded, and the result was analyzed by GraphPad Prism 5. GI50 values represent mean±SEM for at least two separate experiments performed in triplicate.

[4] = Table 2, mean ± SEM, read-out: GLI1 mRNA expression, IC50 C3H10T1/2
[5] = Table 4, racemates and enantiomers, mean ± SEM, read-out: RT-qPCR, IC50 C3H10T1/2
[6] = Table 2, mean ± SEM, read-out: GLI1 mRNA expression, IC50 Sufu-KO
[7] = Table 4, racemates and enantiomers, mean ± SEM, read-out: RT-qPCR, IC50 Sufu-KO
[8] = Table 2, mean ± SEM, read-out: GLI1 mRNA expression, IC50 ASZ001
[9] = Table 4, racemates and enantiomers, mean ± SEM, read-out: RT-qPCR, IC50 ASZ001
[10] = Mus musculus, Table 7, GLI1 mRNA, Ave ± SEM, read-out: RT-qPCR, IC50 Sufu-KO
[11] = Mus musculus, ASZ001, Table 7, GLI1 mRNA, Ave ± SEM, read-out: RT-qPCR, IC50 ASZ001
[12] = Mus musculus, Table 5, GLI1 mRNA, Ave ± SEM, read-out: RT-qPCR, IC50 Sufu-KO
[13] = Mus musculus, ASZ001, Table 5, GLI1 mRNA, Ave ± SEM, read-out: RT-qPCR, IC50 ASZ001

Row | Structure (SMILES) | % Gli1 Expression (GLI1 mRNA expression [1]; mean ± SEM) [%] | IC50 (GLI1 mRNA expression [1]; [4]) [nM] | IC50 (GLI1 mRNA expression [2]; [6]) [nM] | IC50 (GLI1 mRNA expression [3]; [8]) [nM] | also measured
1 | CCOc1ccc(C(Nc2ccccn2)c2ccc3ccc(C)nc3c2O)cc1 (racemic) [s16] | 86.8 ± 5.7 |  |  |  | 
2 | Oc1c(C(Nc2ccccn2)c2ccc(Cl)c(Cl)c2)ccc2cccnc12 (racemic) [Compound 7] | 4.2 ± 0.9 | 570 ± 140 | 480 ± 220 | 2800 ± 1500 | IC50 (GLI1 mRNA expression [1]; [5]): 570 ± 140 nM; IC50 (GLI1 mRNA expression [2]; [7]): 480 ± 220 nM; IC50 (GLI1 mRNA expression [3]; [9]): 2800 ± 1500 nM
3 | COc1cccc(C(Nc2cc(C)ccn2)c2ccc3cccnc3c2O)c1C (racemic) [Compound 2] | 7.0 ± 1.4 | 760 ± 230 | 990 ± 320 | 5800 ± 1100 | 
4 | Cc1ccc2ccc(C(Nc3ccccn3)c3ccc(-n4ccc5ccccc54)cc3)c(O)c2n1 (centres unmarked) [Compound 47, 7-((4-(1H-indol-1-yl)phenyl)(pyridin-2-ylamino)methyl)-2-methylquinolin-8-ol] |  |  |  |  | GI50 (ASZ001 cells; Table 7, 48 h): 62300 ± 13500 nM; IC50 (GLI1 mRNA expression [2]; [10]): 1700 ± 300 nM; IC50 (GLI1 mRNA expression [3]; [11]): 10500 ± 3200 nM
5 | Cc1ccc2ccc(C(Nc3ccccn3)c3cccc(F)c3)c(O)c2n1 (centres unmarked) [Compound 37, 7-((3-Fluorophenyl)(pyridin-2-ylamino)methyl)-2-methylquinolin-8-ol] |  |  |  |  | GI50 (ASZ001 cells; Table 7, 48 h): 33100 ± 9100 nM; IC50 (GLI1 mRNA expression [2]; [10]): 5300 ± 1300 nM; IC50 (GLI1 mRNA expression [3]; [11]): 19200 ± 5500 nM
6 | CCNc1cccc(C(Nc2ccccn2)c2ccc3ccc(C)nc3c2O)c1 (centres unmarked) [Compound 38, 7-((3-Ethylaminophenyl)(pyridin-2-ylamino)methyl)-2-methylquinolin-8-ol] |  |  |  |  | GI50 (ASZ001 cells; Table 7, 48 h): > 100000 nM; IC50 (GLI1 mRNA expression [2]; [10]): 10600 ± 2600 nM; IC50 (GLI1 mRNA expression [3]; [11]): 19300 ± 5000 nM
7 | CCN(CC)c1ccc(C(C)(Nc2ccccn2)c2ccc3ccc(C)nc3c2O)cc1 (centres unmarked) [Compound 28, 7-(1-(4-(Diethylamino)phenyl)-1-(pyridin-2-ylamino)ethyl)-2-methylquinolin-8-ol] |  |  |  |  | GI50 (ASZ001 cells; Table 5, 48 h): 25100 ± 4200 nM; IC50 (GLI1 mRNA expression [2]; [12]): 2100 ± 600 nM; IC50 (GLI1 mRNA expression [3]; [13]): 7200 ± 1100 nM
8 | CCN(CC)c1ccc(C(Nc2ccccn2)c2c(O)ccc3cccnc23)cc1 (centres unmarked) [Compound 19, 8-((4-Diethylaminophenyl)(pyridin-2-ylamino)methyl)quinolin-7-ol] |  |  |  |  | GI50 (ASZ001 cells; Table 5, 48 h): > 100000 nM; IC50 (GLI1 mRNA expression [2]; [12]): > 25000 nM; IC50 (GLI1 mRNA expression [3]; [13]): 14600 ± 1400 nM
9 | Cc1ccc2ccc(C(Nc3ccccn3)c3ccccc3Cl)c(O)c2n1 (racemic) [s12] | 23.6 ± 2.8 |  |  |  | 
10 | CCN(CC)c1ccc(C2c3ccc4ccc(C)nc4c3OC(=O)N2c2ccccn2)cc1 (centres unmarked) [Compound 27, 4-(4-Diethylaminophenyl)-9-methyl-3-(pyridin-2-yl)-3,4-dihydro-2H-[1,3]oxazino[5,6-h]quinolin-2-one] |  |  |  |  | GI50 (ASZ001 cells; Table 5, 48 h): > 100000 nM; IC50 (GLI1 mRNA expression [2]; [12]): > 25000 nM; IC50 (GLI1 mRNA expression [3]; [13]): 6900 ± 1100 nM
11 | COc1ccc(C(Nc2ccccn2)c2ccc3ccc(C)nc3c2O)cc1 (racemic) [s18] | >100 |  |  |  | 
12 | CCc1ccc(C(Nc2cc(C)ccn2)c2ccc3cccnc3c2O)cc1 (racemic) [s10] | 79.4 ± 8.1 |  |  |  | 
13 | CCOc1cccc(C(Nc2cc(C)ccn2)c2ccc3cccnc3c2O)c1C (racemic) [s3] | 59.1 ± 11.9 |  |  |  | 
14 | Oc1c(C(Nc2ccccn2)c2c(F)cccc2Cl)ccc2cccnc12 (racemic) [Compound 12] | 6.5 ± 0.8 | 730 ± 70 | 1000 ± 200 | 3600 ± 1500 | IC50 (GLI1 mRNA expression [1]; [5]): 730 ± 70 nM; IC50 (GLI1 mRNA expression [2]; [7]): 1000 ± 200 nM; IC50 (GLI1 mRNA expression [3]; [9]): 3600 ± 1500 nM
15 | CCOc1cc(C(Nc2cc(C)ccn2)c2ccc3cccnc3c2O)ccc1OC (racemic) [Compound 6] | 7.6 ± 0.9 | 3100 ± 1200 | 780 ± 160 | > 10000 | reduction of GLI1 expression in ASZ001 (in words) (GLI1 mRNA expression [3]): did not reduce GLI1 expression
16 | CSc1ccc(C(Nc2cc(C)ccn2)c2ccc3cccnc3c2O)cc1 (racemic) [Compound 8] | 4.1 ± 1.1 | 980 ± 470 | 1300 ± 200 | 4500 ± 2600 | 
17 | Cc1ccc2ccc(C(Nc3ccccn3)c3ccccc3F)c(O)c2n1 (racemic) [s14] | 78.9 ± 17.6 |  |  |  | 
18 | COc1ccc(I)cc1C(Nc1cc(C)ccn1)c1ccc2cccnc2c1O (racemic) [s19] | >100 |  |  |  | 
19 | COc1ccc(C(Nc2ccccn2)c2ccc3ccc(C)nc3c2O)cc1C (racemic) [s11] | 62.1 ± 6.4 |  |  |  | 
20 | CCOc1ccc(C(Nc2ccccn2)c2ccc3ccc(C)nc3c2O)cc1OC (racemic) [s7] | >100 |  |  |  | 
21 | Cc1ccnc(NC(c2cc(C)ccc2C)c2ccc3cccnc3c2O)c1 (racemic) [Compound 3] | 10.0 ± 2.4 | 1200 ± 400 | 310 ± 210 | 2200 ± 900 | IC50 (GLI1 mRNA expression [1]; [5]): 1200 ± 400 nM; IC50 (GLI1 mRNA expression [2]; [7]): 310 ± 210 nM; IC50 (GLI1 mRNA expression [3]; [9]): 2200 ± 900 nM
22 | Cc1ccc2ccc(C(Nc3ccccn3)c3ccc(Cl)c(Cl)c3)c(O)c2n1 (racemic) [Compound 11] | 16.6 ± 0.7 | 390 ± 270 | 3700 ± 1000 | > 10000 | reduction of GLI1 expression in ASZ001 (in words) (GLI1 mRNA expression [3]): did not reduce GLI1 expression
23 | COc1ccc(C(Nc2cc(C)ccn2)c2ccc3cccnc3c2O)cc1O (racemic) [Compound 5] | 6.1 ± 0.6 | 1800 ± 500 | 630 ± 200 | 7100 ± 1200 | 
24 | COc1ccc(C(Nc2ccccn2)c2ccc3cccnc3c2O)cc1[N+](=O)[O-] (racemic) [Compound 13] | 5.9 ± 0.3 | 1000 ± 300 | 1700 ± 100 | 3600 ± 1100 | 
25 | CCOc1cccc(C(Nc2cc(C)ccn2)c2ccc3cccnc3c2O)c1OC (racemic) [s2] | 63.7 ± 7.2 |  |  |  | 
26 | Cc1ccnc(NC(c2cccc(Cl)c2Cl)c2ccc3cccnc3c2O)c1 (racemic) [Compound 10] | 18.2 ± 1.5 | 210 ± 100 | 1500 ± 400 | 8400 ± 2000 | IC50 (GLI1 mRNA expression [1]; [5]): 210 ± 100 nM; IC50 (GLI1 mRNA expression [2]; [7]): 1500 ± 400 nM; IC50 (GLI1 mRNA expression [3]; [9]): 8400 ± 2000 nM
27 | Cc1ccc(NC(c2cccc(C)n2)c2ccc3cccnc3c2O)nc1 (centres unmarked) [s25] | >100 |  |  |  | 
28 | CCOc1cccc(C(Nc2ccccn2)c2ccc3ccc(C)nc3c2O)c1 (racemic) [s6] | 56.1 ± 2.1 |  |  |  | 
29 | Cc1ccccc1C(Nc1ccccn1)c1ccc2cccnc2c1O (racemic) [Compound 9] | 10.6 ± 1.9 | 620 ± 190 | 1900 ± 600 | > 10000 | reduction of GLI1 expression in ASZ001 (in words) (GLI1 mRNA expression [3]): did not reduce GLI1 expression
